Experimental data published in ChEMBL document CHEMBL1287741, “Synthesis, antiproliferative activity in cancer cells and theoretical studies of novel 6α,7β-dihydroxyvouacapan-17β-oic acid Mannich base derivatives” (2010).
In brackets after ≈: the same amount, converted by molar mass.

Experiments:
Assay type in all cases: functional
[1] = test system: PC-3; assay: Growth inhibition of human PC3 cells after 48 hrs by sulforhodamine B assay; conditions: PC-3, 48 h
[2] = test system: HT-29; assay: Growth inhibition of human HT-29 cells after 48 hrs by sulforhodamine B assay; conditions: HT-29, 48 h
[3] = test system: NCI-H460; assay: Growth inhibition of human NCI-H460 cells after 48 hrs by sulforhodamine B assay; conditions: NCI-H460, 48 h
[4] = test system: OVCAR-3; assay: Growth inhibition of human OVCAR-3 cells after 48 hrs by sulforhodamine B assay; conditions: OVCAR-3, 48 h
[5] = test system: UACC-62; assay: Growth inhibition of human UACC62 cells after 48 hrs by sulforhodamine B assay; conditions: UACC-62, 48 h
[6] = test system: NCI/ADR-RES; assay: Growth inhibition of human NCI-ADR-RES cells after 48 hrs by sulforhodamine B assay
[7] = test system: MCF7; assay: Growth inhibition of human MCF7 cells after 48 hrs by sulforhodamine B assay; conditions: MCF7, 48 h
[8] = test system: 786-0; assay: Growth inhibition of human 786-0 cells after 48 hrs by sulforhodamine B assay; conditions: 786-0, 48 h
[9] = test system: K562; assay: Growth inhibition of human K562 cells after 48 hrs by sulforhodamine B assay; conditions: K562, 48 h

| SMILES | GI50 [1] [µg/mL] | TGI [1] [µg/mL] | GI50 [2] [µg/mL] | TGI [2] [µg/mL] | GI50 [3] [µg/mL] | TGI [3] [µg/mL] | GI50 [4] [µg/mL] | TGI [4] [µg/mL] | GI50 [5] [µg/mL] | TGI [5] [µg/mL] | GI50 [6] [µg/mL] | TGI [6] [µg/mL] | GI50 [7] [µg/mL] | TGI [7] [µg/mL] | GI50 [8] [µg/mL] | TGI [8] [µg/mL] | GI50 [9] [µg/mL] | TGI [9] [µg/mL] |
| --- | --- | --- | --- | --- | --- | --- | --- | --- | --- | --- | --- | --- | --- | --- | --- | --- | --- | --- |
| CC1(C)CCC[C@@]2(C)C1[C@@H](O)[C@@H]1OC(=O)[C@@H]3c4ccoc4C[C@H]2[C@@H]13 (some centres undefined) | 30.8 (≈ 93.3 µM) | 91.9 (≈ 278 µM) | 52.5 (≈ 159 µM) | > 250 | 2.53 (≈ 7.66 µM) | 12.4 (≈ 37.7 µM) | 0.52 (≈ 1.57 µM) | 8.82 (≈ 26.7 µM) | 5.19 (≈ 15.7 µM) | 30 (≈ 90.8 µM) | 0.35 (≈ 1.06 µM) | > 250 | 27.7 (≈ 83.7 µM) | 214 (≈ 647 µM) | 8.87 (≈ 26.8 µM) | 37.3 (≈ 113 µM) | 2.08 (≈ 6.29 µM) | > 250 |
| CCCN(CCC)Cc1cc2c(o1)C[C@H]1[C@H]3[C@@H](OC(=O)[C@H]23)[C@H](O)[C@H]2C(C)(C)CCC[C@]12C | 2.4 (≈ 5.41 µM) | 3.83 (≈ 8.63 µM) | 2.33 (≈ 5.25 µM) | 3.35 (≈ 7.55 µM) | 2.96 (≈ 6.67 µM) | 6.01 (≈ 13.5 µM) | 2.36 (≈ 5.32 µM) | 3.9 (≈ 8.79 µM) | 2.76 (≈ 6.22 µM) | 4.96 (≈ 11.2 µM) | 2.64 (≈ 5.95 µM) | 5.53 (≈ 12.5 µM) | 2.5 (≈ 5.64 µM) | 5.31 (≈ 12 µM) | 2.5 (≈ 5.64 µM) | 3.72 (≈ 8.39 µM) | 2.77 (≈ 6.24 µM) | 8.87 (≈ 20 µM) |
| COc1cccc2c1C(=O)c1c(O)c3c(c(O)c1C2=O)C[C@@](O)(C(=O)CO)C[C@@H]3O[C@H]1C[C@H](N)[C@H](O)[C@H](C)O1 [DOXORUBICIN] | 0.28 (≈ 0.515 µM) | 5.85 (≈ 10.8 µM) | 0.07 (≈ 0.129 µM) | 3.9 (≈ 7.18 µM) | < 0.03 | 0.9 (≈ 1.66 µM) | 0.08 (≈ 0.147 µM) | 2.95 (≈ 5.43 µM) | 0.09 (≈ 0.166 µM) | 0.33 (≈ 0.607 µM) | 0.33 (≈ 0.607 µM) | 6.6 (≈ 12.1 µM) | 0.03 (≈ 0.0552 µM) | 3.3 (≈ 6.07 µM) | 0.04 (≈ 0.0736 µM) | 2.67 (≈ 4.91 µM) | 0.4 (≈ 0.736 µM) | 20.5 (≈ 37.7 µM) |
| CC1(C)CCC[C@]2(C)[C@H]3Cc4oc(CN5CCCCC5)cc4[C@H]4C(=O)O[C@@H]([C@H](O)[C@@H]12)[C@@H]43 | 0.27 (≈ 0.631 µM) | 0.78 (≈ 1.82 µM) | 1.76 (≈ 4.12 µM) | 2.23 (≈ 5.22 µM) | 2.5 (≈ 5.85 µM) | 4.64 (≈ 10.9 µM) | 2.37 (≈ 5.54 µM) | 4.36 (≈ 10.2 µM) | 2.44 (≈ 5.71 µM) | 3.96 (≈ 9.26 µM) | 2.65 (≈ 6.2 µM) | 7.1 (≈ 16.6 µM) | 0.88 (≈ 2.06 µM) | 3.82 (≈ 8.93 µM) | 2.31 (≈ 5.4 µM) | 4.11 (≈ 9.61 µM) | 0.32 (≈ 0.748 µM) | 4.55 (≈ 10.6 µM) |
| CC(C)CN(Cc1cc2c(o1)C[C@H]1[C@H]3[C@@H](OC(=O)[C@H]23)[C@H](O)[C@H]2C(C)(C)CCC[C@]12C)CC(C)C | 0.98 (≈ 2.08 µM) | 4.06 (≈ 8.61 µM) | 0.67 (≈ 1.42 µM) | 6.91 (≈ 14.6 µM) | 0.29 (≈ 0.615 µM) | 3.2 (≈ 6.78 µM) | 0.28 (≈ 0.594 µM) | 1.86 (≈ 3.94 µM) | 0.86 (≈ 1.82 µM) | 5.27 (≈ 11.2 µM) | 0.39 (≈ 0.827 µM) | 5.39 (≈ 11.4 µM) | 0.69 (≈ 1.46 µM) | 7.4 (≈ 15.7 µM) | 2.5 (≈ 5.3 µM) | 16.6 (≈ 35.3 µM) | 5.06 (≈ 10.7 µM) | 86.1 (≈ 182 µM) |
| CCN(CC)Cc1cc2c(o1)C[C@H]1[C@H]3[C@@H](OC(=O)[C@H]23)[C@H](O)[C@H]2C(C)(C)CCC[C@]12C | 0.28 (≈ 0.674 µM) | 0.58 (≈ 1.4 µM) | 0.32 (≈ 0.77 µM) | 1.14 (≈ 2.74 µM) | 1.35 (≈ 3.25 µM) | 3.23 (≈ 7.77 µM) | 2.5 (≈ 6.02 µM) | 5.62 (≈ 13.5 µM) | 0.57 (≈ 1.37 µM) | 2.55 (≈ 6.14 µM) | 3.12 (≈ 7.51 µM) | 8.15 (≈ 19.6 µM) | 0.27 (≈ 0.65 µM) | 1.44 (≈ 3.47 µM) | 2.23 (≈ 5.37 µM) | 2.49 (≈ 5.99 µM) | < 0.25 | 3.01 (≈ 7.24 µM) |
| CC1(C)CCC[C@]2(C)[C@H]3Cc4oc(CN5CCOCC5)cc4[C@H]4C(=O)O[C@@H]([C@H](O)[C@@H]12)[C@@H]43 | 0.27 (≈ 0.629 µM) | 1.27 (≈ 2.96 µM) | 1.68 (≈ 3.91 µM) | 3.68 (≈ 8.57 µM) | 2.69 (≈ 6.26 µM) | 4.05 (≈ 9.43 µM) | 2.6 (≈ 6.05 µM) | 8.05 (≈ 18.7 µM) | 2.5 (≈ 5.82 µM) | 4.36 (≈ 10.1 µM) | 2.73 (≈ 6.36 µM) | 6.34 (≈ 14.8 µM) | 2.45 (≈ 5.7 µM) | 4.77 (≈ 11.1 µM) | 2.37 (≈ 5.52 µM) | 4.04 (≈ 9.41 µM) | 2.39 (≈ 5.56 µM) | 8.24 (≈ 19.2 µM) |
| CC1(C)CCC[C@]2(C)[C@H]3Cc4oc(CN5CCCC5)cc4[C@H]4C(=O)O[C@@H]([C@H](O)[C@@H]12)[C@@H]43 | 0.34 (≈ 0.822 µM) | 1.69 (≈ 4.09 µM) | 0.3 (≈ 0.725 µM) | 1.61 (≈ 3.89 µM) | 2.5 (≈ 6.05 µM) | 4.94 (≈ 11.9 µM) | 2.5 (≈ 6.05 µM) | 5.28 (≈ 12.8 µM) | 0.78 (≈ 1.89 µM) | 3.05 (≈ 7.38 µM) | 2.5 (≈ 6.05 µM) | 6.18 (≈ 14.9 µM) | 1.81 (≈ 4.38 µM) | 3.86 (≈ 9.33 µM) | 0.76 (≈ 1.84 µM) | 3.98 (≈ 9.62 µM) | 1.58 (≈ 3.82 µM) | 23.2 (≈ 56.1 µM) |
